Test results reported in the supplement of paper PMC10307832.

Tests used:
Assay in all cases: relative viability (nuclei count vs DMSO), 5 days (fraction); higher = more cells survive
ABC-1 = system: ABC-1
How it was run: (§1)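 Relative viability divides the nuclei count in treated wells by that in vehicle wells. Lung cancer cell lines were seeded in 1536-well plates, dosed by pin tool the next day, and fixed and stained after 5 days in one step with final 0.05% Triton X-100, 1% formaldehyde and 1 ug/ml Hoechst. Dosing was a single drug or a fixed anchor-drug dose plus five library-drug doses (not always all listed) in √10 steps, and values are medians of duplicate plates imaged at 4×.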

HCC-44 = system: HCC-44
How it was run: as §1

LOU-NH91 = system: LOU-NH91
How it was run: as §1

NCI-H647 = system: NCI-H647
How it was run: as §1

NCI-H1734 = system: NCI-H1734
How it was run: as §1

COR-L23 = system: COR-L23
How it was run: as §1

SW 900 = system: SW 900
How it was run: as §1

NCI-H1650 = system: NCI-H1650
How it was run: as §1

EPLC-272H = system: EPLC-272H
How it was run: as §1

RERF-LC-KJ = system: RERF-LC-KJ
How it was run: as §1

NCI-H1993 = system: NCI-H1993
How it was run: as §1

NCI-H1793 = system: NCI-H1793
How it was run: as §1

NCI-H1563 = system: NCI-H1563
How it was run: as §1

NCI-H441 = system: NCI-H441
How it was run: as §1

NCI-H3122 = system: NCI-H3122
How it was run: as §1

NCI-H520 = system: NCI-H520
How it was run: as §1

PC-14 = system: PC-14
How it was run: as §1

NCI-H2023 = system: NCI-H2023
How it was run: as §1

NCI-H2085 = system: NCI-H2085
How it was run: as §1

NCI-H2347 = system: NCI-H2347
How it was run: as §1

EKVX = system: EKVX
How it was run: as §1

201T = system: 201T
How it was run: as §1

NCI-H2405 = system: NCI-H2405
How it was run: as §1

NCI-H2170 = system: NCI-H2170
How it was run: as §1

CC(C)Oc1cc(Nc2nc(N[C@@H](C)c3ccc(F)cn3)ncc2Cl)n[nH]1 [AZ23] + N=C(N)NC(=N)NCCc1ccccc1 [Phenformin] (partner 250 µM)
relative viability (ABC-1; first compound 0.01 µM): 0.211
relative viability (ABC-1; first compound 0.03162 µM): 0.221
relative viability (ABC-1; first compound 0.3162 µM): 0.236
relative viability (HCC-44; first compound 0.01 µM): 0.231
relative viability (HCC-44; first compound 0.03162 µM): 0.4
relative viability (HCC-44; first compound 0.3162 µM): 0.245
relative viability (LOU-NH91; first compound 0.01 µM): 0.713
relative viability (LOU-NH91; first compound 0.03162 µM): 0.755
relative viability (LOU-NH91; first compound 0.3162 µM): 0.728
relative viability (NCI-H647; first compound 0.01 µM): 0.558
relative viability (NCI-H647; first compound 0.03162 µM): 0.797
relative viability (NCI-H647; first compound 0.3162 µM): 0.604
relative viability (NCI-H1734; first compound 0.01 µM): 0.335
relative viability (NCI-H1734; first compound 0.03162 µM): 0.451
relative viability (NCI-H1734; first compound 0.3162 µM): 0.439
relative viability (COR-L23; first compound 0.01 µM): 0.367
relative viability (COR-L23; first compound 0.03162 µM): 0.512
relative viability (COR-L23; first compound 0.3162 µM): 0.462
relative viability (SW 900; first compound 0.01 µM): 0.734
relative viability (SW 900; first compound 0.03162 µM): 0.879
relative viability (SW 900; first compound 0.3162 µM): 0.799
relative viability (NCI-H1650; first compound 0.03162 µM): 0.537
relative viability (NCI-H1650; first compound 0.3162 µM): 0.405
relative viability (EPLC-272H; first compound 0.01 µM): 0.33
relative viability (EPLC-272H; first compound 0.03162 µM): 0.302
relative viability (EPLC-272H; first compound 0.3162 µM): 0.378
relative viability (RERF-LC-KJ; first compound 0.01 µM): 0.455
relative viability (RERF-LC-KJ; first compound 0.03162 µM): 0.457
relative viability (RERF-LC-KJ; first compound 0.3162 µM): 0.463
relative viability (NCI-H1993; first compound 0.01 µM): 0.501
relative viability (NCI-H1993; first compound 0.03162 µM): 0.475
relative viability (NCI-H1993; first compound 0.3162 µM): 0.441
relative viability (NCI-H1793; first compound 0.01 µM): 0.366
relative viability (NCI-H1793; first compound 0.03162 µM): 0.439
relative viability (NCI-H1793; first compound 0.3162 µM): 0.45
relative viability (NCI-H1563; first compound 0.01 µM): 0.708
relative viability (NCI-H1563; first compound 0.03162 µM): 0.653
relative viability (NCI-H1563; first compound 0.3162 µM): 0.707
relative viability (NCI-H441; first compound 0.01 µM): 0.865
relative viability (NCI-H441; first compound 0.03162 µM): 0.841
relative viability (NCI-H441; first compound 0.3162 µM): 0.906
relative viability (NCI-H3122; first compound 0.01 µM): 0.387
relative viability (NCI-H3122; first compound 0.03162 µM): 0.439
relative viability (NCI-H3122; first compound 0.3162 µM): 0.373
relative viability (NCI-H520; first compound 0.01 µM): 0.508
relative viability (NCI-H520; first compound 0.03162 µM): 0.643
relative viability (NCI-H520; first compound 0.3162 µM): 0.23
relative viability (PC-14; first compound 0.03162 µM): 0.781
relative viability (PC-14; first compound 0.3162 µM): 0.703
relative viability (NCI-H2023; first compound 0.03162 µM): 0.506
relative viability (NCI-H2023; first compound 0.3162 µM): 0.481
relative viability (NCI-H2085; first compound 0.01 µM): 0.727
relative viability (NCI-H2085; first compound 0.03162 µM): 0.705
relative viability (NCI-H2085; first compound 0.3162 µM): 0.779
relative viability (NCI-H2347; first compound 0.01 µM): 0.341
relative viability (NCI-H2347; first compound 0.03162 µM): 0.333
relative viability (NCI-H2347; first compound 0.3162 µM): 0.455
relative viability (EKVX; first compound 0.01 µM): 0.224
relative viability (EKVX; first compound 0.03162 µM): 0.237
relative viability (EKVX; first compound 0.3162 µM): 0.231
relative viability (201T; first compound 0.01 µM): 0.539
relative viability (201T; first compound 0.03162 µM): 0.438
relative viability (201T; first compound 0.3162 µM): 0.486
relative viability (NCI-H2405; first compound 0.01 µM): 0.33
relative viability (NCI-H2405; first compound 0.03162 µM): 0.429
relative viability (NCI-H2405; first compound 0.3162 µM): 0.382
relative viability (NCI-H2170; first compound 0.01 µM): 0.463
relative viability (NCI-H2170; first compound 0.03162 µM): 0.424
relative viability (NCI-H2170; first compound 0.3162 µM): 0.489
